Test results as given in paper PMC7898795 (Angewandte Chemie (International Ed. in English), 2020).
Converted amounts (≈) assume the structure as drawn.

Test: Water solubility assay
Assay type: physicochemical
Conditions: for solubility thermodynamic at 24 h: thermodynamic from solid
[1] = 50 mM TEAA buffer, pH 7.9, aqueous buffer

solubility thermodynamic at 24 h [1] | solubility thermodynamic at 24 h (ddH2O, water) | times more water-soluble than thiostrepton, in 50 mM TEAA (pH 7.9) (ratio of solubility to that of thiostrepton in 50 mM TEAA pH 7.9) | times more water-soluble than thiostrepton, in ddH2O (ratio of solubility to that of thiostrepton in ddH2O) | SMILES
5 ± 0.2 µg/mL (≈ 3 µM) | 6.4 ± 0.1 µg/mL (≈ 3.84 µM) | – | – | C=C(NC(=O)C(=C)NC(=O)c1csc(C2=N[C@@H]3c4csc(n4)[C@H]4NC(=O)c5csc(n5)[C@H]([C@](C)(O)[C@@H](C)O)NC(=O)[C@H]5CSC(=N5)/C(=C/C)NC(=O)[C@H]([C@@H](C)O)NC(=O)c5csc(n5)[C@]3(CC2)NC(=O)[C@H](C)NC(=O)C(=C)NC(=O)[C@H](C)NC(=O)[C@H]([C@@H](C)CC)N[C@@H]2C=Cc3c([C@H](C)O)cc(nc3[C@H]2O)C(=O)O[C@@H]4C)n1)C(N)=O [Thiostrepton, thiostrepton, reference compound]
422 ± 8.5 µg/mL (≈ 240 µM) | 170 ± 2.6 µg/mL (≈ 96.6 µM) | 84 × | 27 × | C=C1NC(=O)[C@H](C)NC(=O)[C@H]([C@@H](C)CC)N[C@@H]2C=Cc3c([C@H](C)O)cc(nc3[C@H]2O)C(=O)O[C@H](C)[C@@H]2NC(=O)c3csc(n3)[C@H]([C@](C)(O)[C@@H](C)O)NC(=O)[C@H]3CSC(=N3)/C(=C/C)NC(=O)[C@H]([C@@H](C)O)NC(=O)c3csc(n3)[C@]3(CCC(c4nc(C(=O)NC(CB(O)O)C(=O)NC(CB(O)O)C(N)=O)cs4)=N[C@@H]3c3csc2n3)NC(=O)[C@H](C)NC1=O (stereo partly drawn) [compound 3]
